Laboratory results reported in patent US6518304B1, “Fungicidal composition” (Sumitomo Chemical Company, Limited, priority 1993, dated 2003).
Like-named read-outs stand apart in the source and are kept apart here.

Assays:
[1] = system: grape downy mildew fungus; assay: Test Example 9: grape downy mildew, foliage application then inoculation; conditions: grape seedling
Procedure: (§1) Each of plastic pots was filled with sandy loam and sown with grape (Berry A), followed by growing in a greenhouse for 40 days. […] Then, the young seedling was inoculated with a suspension of zoosporangia of grape downy mildew fungus by spraying. After the inoculation, the young seedling was allowed to stand overnight at 23° C. and a high humidity and then grown in a greenhouse for 7 days, after which the infection rate (%) was investigated.

apple scab fungus [2] = assay: Test Example 13: apple scab, foliage application then inoculation; type: in vivo, Venturia inaequalis; conditions: apple seedling
[3] = system: gray mold fungi sensitive to benzimidazole type fungicidal compounds; assay: Test Example 12: cucumber gray mold, benzimidazole-sensitive fungus; conditions: cucumber seedling
Procedure: Each of plastic pots was filled with sandy loam and sown with cucumber (Sagamihanjiro), followed by growing in a greenhouse for 14 days. A wettable powder of test agents prepared according to Formulation Example 41 was diluted to a predetermined concentration with water, and foliage application of the dilution was carried out so as to adhere the dilution sufficiently to the surfaces of leaves of the grown cucumber young seedling. After air-drying, each of gray mold fungi sensitive and tolerant, respectively, to benzimidazole type fungicidal compounds was inoculated on the surfaces of leaves of the young seedling, and the young seedling was grown in the dark at 10° C. and a high humidity for 4 days, after which the infection rate (%) was investigated.

[4] = system: gray mold fungi tolerant to benzimidazole type fungicidal compounds; assay: Test Example 12: cucumber gray mold, benzimidazole-tolerant (resistant) fungus; conditions: cucumber seedling
Procedure: Each of plastic pots was filled with sandy loam and sown with cucumber (Sagamihanjiro), followed by growing in a greenhouse for 14 days. […] After air-drying, each of gray mold fungi sensitive and tolerant, respectively, to benzimidazole type fungicidal compounds was inoculated on the surfaces of leaves of the young seedling, and the young seedling was grown in the dark at 10° C. and a high humidity for 4 days, after which the infection rate (%) was investigated.

apple scab fungus [5] = assay: Test Example 8: apple scab, foliage application then inoculation; type: in vivo, Venturia inaequalis; conditions: apple seedling
[6] = system: tomato late blight fungus; type: in vivo, Phytophthora infestans; conditions: tomato seedling
[7] = system: grape downy mildew fungus; assay: Test Example 6: grape downy mildew, foliage application then inoculation; conditions: grape seedling
Procedure: as §1

gray mold fungus [8] = assay: Test Example 4: cucumber gray mold, foliage application after inoculation; conditions: cucumber seedling, applied after inoculation
Procedure: Each of plastic pots was filled with sandy loam and sown with cucumber (Sagamihanjiro), followed by growing in a greenhouse for 14 days. Gray mold fungus was inoculated on the surfaces of leaves of the grown cucumber young seedling, and the young seedling was grown in the dark at 10° C. and a high humidity for 2 days and then at a temperature of 23° C. for 3 days. A wettable powder of test agents prepared according to Formulation Example 11 was diluted to a predetermined concentration with water, and foliage application of the dilution was carried out so as to adhere the dilution sufficiently to the surfaces of leaves of the cucumber young seedling. After the spraying, the young seedling was grown in the dark at 10° C. and a high humidity for 3 days, and then the infection rate (%) was investigated.

gray mold fungus [9] = assay: Test Example 11: cucumber gray mold, foliage application before inoculation; conditions: cucumber seedling
Procedure: Each of plastic pots was filled with sandy loam and sown with cucumber (Sagamihanjiro), followed by growing in a greenhouse for 14 days. A wettable powder of test agents prepared according to Formulation Example 35 was diluted to a predetermined concentration with water, and foliage application of the dilution was carried out so as to adhere the dilution sufficiently to the surfaces of leaves of the grown cucumber young seedling. After air-drying, gray mold fungus was inoculated on the surfaces of leaves of the young seedling, and the young seedling was grown in the dark at 10° C. and a high humidity for 4 days, after which the infection rate (%) was investigated.

[10] = system: gray mold fungi sensitive to benzimidazole type fungicidal compounds; assay: Test Example 17: cucumber gray mold, benzimidazole-sensitive fungus; conditions: cucumber seedling
Procedure: (§2) Each of plastic pots was filled with sandy loam and sown with cucumber (Sagamihanjiro), followed by growing in a greenhouse for 14 days. A wettable powder of test agents prepared according to Formulation Example 59 was diluted to a predetermined concentration with water, and foliage application of the dilution was carried out so as to adhere the dilution sufficiently to the surfaces of leaves of the grown cucumber young seedling. After air-drying, each of gray mold fungi sensitive and tolerant, respectively, to benzimidazole type fungicidal compounds was inoculated on the surfaces of leaves of the young seedling, and the young seedling was grown in the dark at 10° C. and a high humidity for 4 days, after which the infection rate (%) was investigated.

[11] = system: grape downy mildew fungus; assay: Test Example 7: grape downy mildew, foliage application then inoculation; conditions: grape seedling
Procedure: as §1

[12] = system: tomato late blight fungus; type: in vivo, Phytophthora infestans; conditions: tomato seedling; remark: listed apart in the source
[13] = system: grape downy mildew fungus (Plasmopara viticola); assay: Test Example 2: grape downy mildew, spray then inoculation, infection rate; type: in vivo; conditions: grape plant, 1 week at 24° C.
Text: A grape plant (cultivar: Berry A) was planted in each pot and was sprayed with a sufficient volume of a dilution with a predetermined concentration of a wettable powder obtained according to Formulation Example 5, after the plant put out a fourth leaf.

[14] = system: grape powdery mildew fungus (Uncinula necator); assay: Test Example 16: grape powdery mildew, spray then inoculation; type: in vivo; conditions: grape plant, 3 weeks at 24° C.
[15] = system: tomato late blight fungus (Phytophthora infestans); type: in vivo; conditions: tomato plant, 1 week at 24° C.
gray mold fungus [16] = assay: Test Example 3: cucumber gray mold, foliage application before inoculation; conditions: cucumber seedling, applied before inoculation, 4 days
Procedure: Each of plastic pots was filled with sandy loam and sown with cucumber (Sagamihanjiro), followed by growing in a greenhouse for 14 days. A wettable powder of test agents prepared according to Formulation Example 11 was diluted to a predetermined concentration with water, and foliage application of the dilution was carried out so as to adhere the dilution sufficiently to the surfaces of leaves of the grown cucumber young seedling. After air-drying, gray mold fungus was inoculated on the surfaces of leaves of the young seedling, and the young seedling was grown in the dark at 10° C. and a high humidity for 4 days, after which the infection rate (%) was investigated.

[17] = system: tomato late blight fungus (Phytophthora infestans); type: in vivo; conditions: tomato plant, 1 week at 24° C.; remark: listed apart in the source
[18] = system: grape powdery mildew fungus (Uncinula necator); assay: Test Example 14: grape powdery mildew, spray then inoculation; type: in vivo; conditions: grape plant, 3 weeks at 24° C.
[19] = system: gray mold fungi tolerant to benzimidazole type fungicidal compounds; assay: Test Example 17: cucumber gray mold, benzimidazole-tolerant (resistant) fungus; conditions: cucumber seedling
Procedure: as §2

COC(=O)[C@H](C)N(C(=O)Cc1ccccc1)c1c(C)cccc1C [Benalaxyl, methyl N-(2,6-dimethylphenyl)-N-(phenylacetyl)alaninate]
Infection rate (%) ([1]; 1 ppm): 25%

CCCCNC(=O)n1c(NC(=O)OC)nc2ccccc21 [Benomyl, methyl 1-(butylcarbamoyl)-2-benzimidazole-carbamate, reference compound]
Infection rate (%) (apple scab fungus [2]; 20 ppm): 25%
Infection rate (%) Sensitive fungus ([3]; 10 ppm): 20%
Infection rate (%) Resistant fungus ([4]; 10 ppm): 100%

O=C1C2CC=CCC2C(=O)N1SC(Cl)(Cl)Cl (stereo not drawn) [Captan, 1,2,3,6-tetrahydro-N-(trichloromethylthio)phthalimide, reference compound]
Infection rate (%) (apple scab fungus [5]; 300 ppm): 20%

N#Cc1c(Cl)c(Cl)c(Cl)c(C#N)c1Cl [Chlorothalonil, tetrachloroisophthalonitrile, reference compound]
Infection rate (%) ([6]; 40 ppm): 20%
Infection rate (%) ([7]; 30 ppm): 20%

CON=C(C(=O)OC)c1ccccc1COc1ccccc1C [Compound (Ia), methyl α-methoxyimino-2-[(2-methylphenoxy)methyl]phenylacetate]
Infection rate (%) (apple scab fungus [2]; 1 ppm): 20%
Infection rate (%) (apple scab fungus [5]; 0.8 ppm): 20%
Infection rate (%) (gray mold fungus [8]; 10 ppm): 30%
Infection rate (%) Sensitive fungus ([3]; 10 ppm): 30%
Infection rate (%) ([6]; 50 ppm): 25%
Infection rate (%) (gray mold fungus [9]; 10 ppm): 30%
Infection rate (%) Sensitive fungus ([10]; 10 ppm): 30%
Infection rate (%) ([11]; 10 ppm): 20%
Infection rate (%) ([12]; 100 ppm): 25%
Infection rate (%) ([13]; 10 ppm): 30%
Infection rate (%) ([14]; 10 ppm): 30%
Infection rate (%) ([15]; 10 ppm): 25%
Infection rate (%) (gray mold fungus [16]; 10 ppm): 30%
Infection rate (%) ([7]; 5 ppm): 20%
Infection rate (%) ([1]; 20 ppm): 25%
Infection rate (%) ([17]; 10 ppm): 25%
Infection rate (%) ([18]; 1 ppm): 20%
Infection rate (%) Resistant fungus ([19]; 10 ppm): 30%
Infection rate (%) Resistant fungus ([4]; 10 ppm): 30%

CNC(=O)C(=NOC)c1ccccc1COc1cccc(Cl)c1 [Compound (Ic), N-methyl-α-methoxyimino-2-[(3-chlorophenoxy)methyl]phenylacetamide]
Infection rate (%) (apple scab fungus [2]; 1 ppm): 30%
Infection rate (%) (apple scab fungus [5]; 5 ppm): 25%
Infection rate (%) (gray mold fungus [8]; 200 ppm): 20%
Infection rate (%) Sensitive fungus ([3]; 200 ppm): 20%
Infection rate (%) ([6]; 40 ppm): 20%
Infection rate (%) (gray mold fungus [9]; 200 ppm): 20%
Infection rate (%) Sensitive fungus ([10]; 200 ppm): 20%
Infection rate (%) ([11]; 10 ppm): 25%
Infection rate (%) ([12]; 40 ppm): 20%
Infection rate (%) ([13]; 10 ppm): 25%
Infection rate (%) ([14]; 10 ppm): 25%
Infection rate (%) ([15]; 10 ppm): 25%
Infection rate (%) (gray mold fungus [16]; 200 ppm): 20%
Infection rate (%) ([7]; 5 ppm): 25%
Infection rate (%) ([1]; 100 ppm): 20%
Infection rate (%) ([17]; 10 ppm): 25%
Infection rate (%) ([18]; 1 ppm): 20%
Infection rate (%) Resistant fungus ([19]; 200 ppm): 20%
Infection rate (%) Resistant fungus ([4]; 200 ppm): 20%

CNC(=O)C(=NOC)c1ccccc1COc1ccc(Cl)cc1Cl [Compound (Id), N-methyl-α-methoxyimino-2-[(2,4-dichlorophenoxy)methyl]phenylacetamide]
Infection rate (%) (apple scab fungus [2]; 5 ppm): 20%
Infection rate (%) (apple scab fungus [5]; 5 ppm): 25%
Infection rate (%) (gray mold fungus [8]; 200 ppm): 20%
Infection rate (%) Sensitive fungus ([3]; 200 ppm): 20%
Infection rate (%) ([6]; 40 ppm): 20%
Infection rate (%) (gray mold fungus [9]; 200 ppm): 20%
Infection rate (%) Sensitive fungus ([10]; 200 ppm): 20%
Infection rate (%) ([11]; 10 ppm): 20%
Infection rate (%) ([12]; 40 ppm): 20%
Infection rate (%) ([13]; 10 ppm): 25%
Infection rate (%) ([14]; 10 ppm): 25%
Infection rate (%) ([15]; 10 ppm): 25%
Infection rate (%) (gray mold fungus [16]; 200 ppm): 20%
Infection rate (%) ([7]; 5 ppm): 25%
Infection rate (%) ([1]; 40 ppm): 20%
Infection rate (%) ([17]; 10 ppm): 25%
Infection rate (%) ([18]; 1 ppm): 25%
Infection rate (%) Resistant fungus ([19]; 200 ppm): 20%
Infection rate (%) Resistant fungus ([4]; 200 ppm): 20%

[Cl-].[Cu+2].[Cu+2].[OH-].[OH-].[OH-] [Copper oxychloride, reference compound]
Infection rate (%) ([14]; 500 ppm): 30%
Infection rate (%) ([15]; 500 ppm): 25%

[Cu+2].[O-]c1cccc2cccnc12.[O-]c1cccc2cccnc12 [Copper oxyquinolinolate, copper oxyquinolinolate (8-hydroxyquinolinate), reference compound]
Infection rate (%) ([14]; 200 ppm): 25%
Infection rate (%) ([15]; 50 ppm): 25%

CCNC(=O)NC(=O)C(C#N)=NOC [Cymoxanil, 2-cyano-N-[ethylaminocarbonyl]-2-(methoxyimino)acetamide]
Infection rate (%) ([1]; 40 ppm): 20%

CCOc1ccc(NC(=O)OC(C)C)cc1OCC [Diethofencarb, isopropyl 3,4-diethoxyphenylcarbamate, reference compound]
Infection rate (%) Sensitive fungus ([10]; 10 ppm): 100%
Infection rate (%) Resistant fungus ([19]; 10 ppm): 20%

O=[N+]([O-])c1cc(C(F)(F)F)c(Cl)c([N+](=O)[O-])c1Nc1ncc(C(F)(F)F)cc1Cl [Fluazinam, 3-chloro-N-(3-chloro-5-trifluoromethyl-2-pyridyl)-α,α,α-trifluoro-2,6-dinitro-p-toluidine, reference compound]
Infection rate (%) (gray mold fungus [9]; 1 ppm): 25%

N#Cc1c[nH]cc1-c1cccc2c1OC(F)(F)O2 [Fludioxonil, 4-(2,2-difluoro-1,3-benzodioxol-4-yl)-1H-pyrrole-3-carbonitrile, reference compound]
Infection rate (%) (gray mold fungus [9]; 0.5 ppm): 20%

O=C1c2ccccc2C(=O)N1SC(Cl)(Cl)Cl [Folpet, N-(trichloromethylthio)phthalimide, reference compound]
Infection rate (%) ([11]; 200 ppm): 20%

CCO[PH](=O)O [Fosetyl aluminum, ethyl hydrogenphosphonate]
Infection rate (%) ([1]; 100 ppm): 25%

CC#Cc1cc(C)nc(Nc2ccccc2)n1 [Mepanipyrim, 2-anilino-4-methyl-6-(1-propynyl)pyrimidine, reference compound]
Infection rate (%) (gray mold fungus [9]; 5 ppm): 20%

COCC(=O)N(c1c(C)cccc1C)[C@@H](C)C(=O)OC [Metalaxyl, methyl N-(2,6-dimethylphenyl)-N-(methoxyacetyl)-alaninate, reference compound]
Infection rate (%) ([12]; 5 ppm): 20%
Infection rate (%) ([1]; 1 ppm): 20%

COCC(=O)N(c1c(C)cccc1C)N1CCOC1=O [Oxadixyl, 2-methoxy-N-(2-oxo-1,3-oxazolidin-3-yl)aceto-2′,6′-xylidide]
Infection rate (%) ([1]; 5 ppm): 20%

CC12CC1(C)C(=O)N(c1cc(Cl)cc(Cl)c1)C2=O (stereo not drawn) [Procymidone, N-(3,5-dichlorophenyl)-1,2-dimethylcyclopropane-1,2-dicarboxyimide, reference compound]
Infection rate (%) (gray mold fungus [8]; 10 ppm): 25%
Infection rate (%) (gray mold fungus [16]; 10 ppm): 25%

Cc1cc(C)nc(Nc2ccccc2)n1 [Pyrimetanil, 2-anilino-4,6-dimethylpyrimidine, reference compound]
Infection rate (%) (gray mold fungus [9]; 10 ppm): 20%

S1SSSSSSS1 [Sulfur, sulfur, reference compound]
Infection rate (%) ([18]; 500 ppm): 20%

c1ccc2[nH]c(-c3cscn3)nc2c1 [Thiabendazole, 2-(4′-thiazolyl)benzimidazole, reference compound]
Infection rate (%) Sensitive fungus ([3]; 30 ppm): 25%
Infection rate (%) Resistant fungus ([4]; 30 ppm): 100%

COC(=O)NC(=S)Nc1ccccc1NC(=S)NC(=O)OC [Thiophanate-methyl, 1,2-bis(3-methoxycarbonyl-2-thioureido)benzene, reference compound]
Infection rate (%) (apple scab fungus [2]; 10 ppm): 20%
Infection rate (%) Sensitive fungus ([3]; 10 ppm): 25%
Infection rate (%) Resistant fungus ([4]; 10 ppm): 100%

Mancozeb [reference compound]
Infection rate (%) ([13]; 50 ppm): 25%
Infection rate (%) ([17]; 50 ppm): 25%
